Results from patent US7989420B2, “Smooth muscle relaxation” (New York Medical College, priority 2006, dated 2011).

Key:
Type in all cases: cell-based
[1] = tested on: bovine pulmonary arteries (BPA); test: Heme content of BPA homogenates (QuantiChrom heme assay); details: organ culture with 100 μM ALA and/or 100 μM Fe
Method: Heme was quantified in BPA homogenates using a QuantiChrom heme assay kit purchased from BioAssay Systems, and changes in absorbance were measured in a BIOTEK scanning microplate spectrophotometer. Briefly, segments were homogenized in 20 mM MOPS+sucrose buffer and diluted to approximately 5 mg protein/ml. Homogenates were centrifuged at 2000×g for 5 min, and 50 μl of supernatant obtained were assayed for their heme content based on the manufacture's instructions, employing measurements of changes in absorbance at 400 nm. The protein content of the supernatant was measured with Biorad protein assay kit, and tissue heme levels were reported as nanomoles/mg protein.

[2] = tested on: bovine pulmonary arteries (BPA); test: Isometric force generation to serotonin (5-HT) in organ cultured BPA rings; details: 24 h organ culture
Method: Organoid Culture Isolated Arteries for Heme Modulation. Intralobar BPA were isolated from slaughterhouse-derived bovine calf lungs, cleaned from surrounding tissue, and placed in 37° C. Dulbecco's Modified Eagle Medium (DMEM) containing 10% fetal bovine serum, penicillin, streptomycin, and fungizone (complete media). The arteries were isolated and cut into rings ˜2 mm in diameter and width, and the endothelium was removed by gentle rubbing of the lumen. Various compounds (i.e. ALA, FeSO4(Fe), deferoxamine) were added as described in the Results to various experimental groups, and these arteries were organ cultured overnight for 24 h in complete media in a 37° C.-5% CO2 incubator. Preliminary experiments on the time course for detection protoporphyrin IX accumulation and the effects of organ culture with doses of ALA in the 10-100 μM concentration range on contractile function, and minimizing the duration of organ culture were considerations that contributed to selecting the 24 h culture period used in this study.
Studies on the Regulation of Contractile Function. Following the overnight incubation, arterial rings were mounted on wire hooks attached to Grass (FT03) force displacement transducers for measurement of changes in isometric force. Tension was adjusted to 5 g, which is the optimal passive force for maximal contraction. Changes in force were recorded on a Grass polygraph (model 7), while vessels were incubated in 10-ml baths (Metro Scientific), which were individually thermostated (37° C.) in Krebs buffer gassed with 21% O2-5% CO2 (balance N2) in the absence of compounds used to modulate BPA protoporphyrin IX levels. Arteries were incubated for 1 h during which passive tension was adjusted to maintain 5 grams. The vessels were then depolarized with Krebs containing 123 mM KCl (High K^+) in place of NaCl, followed by re-equilibration with Krebs, prior to exposure to the experimental protocols. Following the wash with Krebs buffer after the High K^+ treatment, and a 30 min equilibration, BPA were then contracted with serotonin (5-HT) in a dose dependent manner to determine the response to this contractile agent. In some experiments, BPA were pretreated with the sGC inhibitor, 10 μM ODQ, for 15 min before contraction with serotonin. The effects of ODQ on relaxation to NO was determined by first contracting organ cultured control and ODQ-treated BPA with 1 μM 5-HT (after the initial exposure to increasing concentrations of 5-HT and a 30 min equilibration in Krebs).

[3] = tested on: bovine bronchi; test: Protoporphyrin IX fluorescence in organ cultured bovine bronchi; details: organ culture with 0.1 mM ALA
From the text: Determination Changes in Protoporphyrin 1× and Heme Levels. Methods for the detection of protoporphyrin IX tissue fluorescence developed for the detection in cancerous cells with tissue depths of up to several millimeters (27) were adapted for detecting changes in the endogenous levels of protoporphyrin IX in BPA rings which were organ cultured with ALA. When excited with light in the regions of 505 and 540 nm, protoporphyrin IX has an emission in the region of 635 nm. […] Increases in protoporphyrin IX were measured using an excitation wavelength of 528±20 nm and emission of 620±40 nm in intact vessels. Ring segments of approximately equal size (˜4 mm in diameter and length) were centered on the bottom of the ˜6 mm diameter wells of a 96 well microplate with 200 μl of Krebs containing with 10 mM Hepes buffer (pH 7.4), and the fluorescence was measured from the bottom surface of the plate using BIOTEK fluorescent microplate reader (Model FLx800i). Data are reported in the arbitrary fluorescence units measured (AU), after subtraction of the low levels of background fluorescence observed in the absence of BPA.
Bovine bronchi were isolated from the same lungs used for pulmonary arteries, and studied for changes in protoporphyrin IX fluorescence and force under the same conditions as bovine pulmonary arteries described above. […]

SMILES: NCC(=O)CCC(=O)O [ALA, δ-aminolevulinic acid]
- BPA heme levels [1]: did not reach statistical significance
- force generation to 5-HT ([2]; 10 μM ALA, appeared to depress force at higher doses of 5-HT): did not reach statistical significance
- decrease in force generation to 5-HT ([2]; 50 μM and 100 μM ALA): 50-90%
- force generation to 5-HT ([2]; 100 μM ALA, 0.1-10 μM 5-HT in the absence of ALA): markedly inhibit force generation
- protoporphyrin IX fluorescence [3]: time-dependent increase in protoporphyrin IX fluorescence
